“Also recorded” adds a separate entry of the source.
What was measured:
[1] = Example 5: oral administration to mice, body weight and plasma calcium; conditions: oral (gavage), 1 mmol/kg
Text: Blood was collected from the tail on days 0, 2, 4, 6, and 8, and by heart puncture on day 12. Tissue mRNAs on day 12 were examined. * indicates p<0.05; ** indicates p<0.01; *** indicates p<0.001, compared with vehicle control.
(§1) Next, the in vivo effects of orally administered lithocholic acid derivatives (dissolved in corn oil) were examined.

leukemic cells = conditions: cited from earlier work
VDR [2] = biological target: T1, VDR (Homo sapiens, UniProt P11473); conditions: Non-Patent Documents 2 and 3; cited from earlier work
T1 sequence (P11473 1-427): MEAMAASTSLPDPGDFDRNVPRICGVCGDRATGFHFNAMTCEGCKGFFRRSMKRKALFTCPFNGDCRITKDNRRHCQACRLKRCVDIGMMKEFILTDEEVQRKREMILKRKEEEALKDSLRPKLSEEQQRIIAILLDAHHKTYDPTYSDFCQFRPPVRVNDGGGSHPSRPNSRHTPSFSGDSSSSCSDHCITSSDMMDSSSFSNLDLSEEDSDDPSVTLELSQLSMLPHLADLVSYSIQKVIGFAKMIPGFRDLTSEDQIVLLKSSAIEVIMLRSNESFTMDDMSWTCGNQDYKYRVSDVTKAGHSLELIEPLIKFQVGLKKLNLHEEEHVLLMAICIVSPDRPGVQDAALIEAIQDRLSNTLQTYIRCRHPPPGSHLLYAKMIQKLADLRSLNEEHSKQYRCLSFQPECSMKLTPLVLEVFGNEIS

[3] = Example 5: intraperitoneal administration to mice, body weight and plasma calcium; format: in vivo; conditions: 0.7 mmol/kg
Text: […]. […] […]. Blood was collected by heart puncture on day 8 and tissue mRNAs on day 8 were examined.

[4] = biological target: T2, farnesoid X receptor (FXR) (Homo sapiens, UniProt Q96RI1); conditions: Non-Patent Documents 3 and 4; cited from earlier work
T2 sequence (Q96RI1 1-486): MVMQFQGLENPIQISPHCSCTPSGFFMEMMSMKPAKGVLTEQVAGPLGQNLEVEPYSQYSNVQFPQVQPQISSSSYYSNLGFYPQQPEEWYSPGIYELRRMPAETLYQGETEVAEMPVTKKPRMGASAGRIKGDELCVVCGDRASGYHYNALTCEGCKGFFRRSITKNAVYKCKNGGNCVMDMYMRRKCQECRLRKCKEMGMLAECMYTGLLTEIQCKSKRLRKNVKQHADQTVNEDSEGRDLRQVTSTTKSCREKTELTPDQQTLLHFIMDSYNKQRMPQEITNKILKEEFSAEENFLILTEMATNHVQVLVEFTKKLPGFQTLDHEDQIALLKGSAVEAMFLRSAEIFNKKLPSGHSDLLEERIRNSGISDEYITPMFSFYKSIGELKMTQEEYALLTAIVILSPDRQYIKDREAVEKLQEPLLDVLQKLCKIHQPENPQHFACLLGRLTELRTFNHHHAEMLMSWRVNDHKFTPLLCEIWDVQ

[5] = system: Human myeloid leukemia HL60 cells; test: Differentiation of myeloid leukemia HL60 cells (Nitro blue tetrazolium-reducing activity); format: cell-based; conditions: for induction of differentiation marker (Nitro blue tetrazolium-reducing activity), HL60 cells: 3 days
VDR target gene CYP24 = test: Example 3: mice injected intraperitoneally, expression of VDR target gene CYP24 in kidney; format: in vivo; conditions: intraperitoneal, every other day, day 8
[6] = system: Cyp24a1, calbindin D9k, Trpv6, Trpv5; test: Example 5: oral administration to mice, mRNA expression in kidney and intestinal mucosa; format: in vivo
Text: Blood was collected from the tail on days 0, 2, 4, 6, and 8, and by heart puncture on day 12. […]
as §1

[7] = biological target: T2, farnesoid X receptor (FXR); test: Effect on FXR (FIG. 1); conditions: 18 μM
[8] = system: Cyp24a1, calbindin D9k, Trpv6, Trpv5; test: Example 5: intraperitoneal administration to mice, mRNA expression in kidney and intestinal mucosa; format: in vivo; conditions: day 8
Text: Blood was collected by heart puncture on day 8 and tissue mRNAs on day 8 were examined.

[9] = biological target: T3, G protein-coupled bile acid receptor 1 (GPBAR1) (Homo sapiens, UniProt Q8TDU6); test: Effect on GPBAR1 (FIG. 1); conditions: 10 μM
T3 sequence (Q8TDU6 1-330): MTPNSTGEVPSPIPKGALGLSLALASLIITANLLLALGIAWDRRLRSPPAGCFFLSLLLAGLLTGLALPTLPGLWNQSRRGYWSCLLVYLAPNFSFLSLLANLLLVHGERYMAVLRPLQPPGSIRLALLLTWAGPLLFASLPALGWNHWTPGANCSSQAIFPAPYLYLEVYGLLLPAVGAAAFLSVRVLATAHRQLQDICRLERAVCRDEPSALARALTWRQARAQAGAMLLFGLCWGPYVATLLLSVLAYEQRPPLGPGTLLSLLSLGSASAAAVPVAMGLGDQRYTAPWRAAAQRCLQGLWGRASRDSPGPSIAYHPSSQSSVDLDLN

VDR [10] = biological target: T4, VDR (Homo sapiens, UniProt P11473); test: VDR activation, GAL4-VDR luciferase reporter in HEK293 cells; conditions: compared with lithocholic acid and lithocholic acid acetate
T4 sequence (P11473 127-423 limits assumed): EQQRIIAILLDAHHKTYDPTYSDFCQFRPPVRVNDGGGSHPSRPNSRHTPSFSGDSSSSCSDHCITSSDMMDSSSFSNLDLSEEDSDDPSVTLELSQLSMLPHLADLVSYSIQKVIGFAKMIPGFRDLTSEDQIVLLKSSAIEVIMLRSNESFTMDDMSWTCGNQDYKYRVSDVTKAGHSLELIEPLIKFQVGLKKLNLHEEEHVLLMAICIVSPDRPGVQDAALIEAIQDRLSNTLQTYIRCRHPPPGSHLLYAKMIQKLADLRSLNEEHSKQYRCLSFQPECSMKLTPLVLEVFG
Protocol: Cells were solubilized 16 to 18 hours later, and evaluated for the luciferase activity.

U937 cells = test: Differentiation markers of myeloid leukemia U937 cells; format: cell-based
[11] = Example 3: mice injected intraperitoneally, body weight and plasma calcium; conditions: mouse, in vivo, ip
myeloid leukemia cells = conditions: compared with 1,25(OH)2D3; Honma et al. 1983; cited from earlier work
[12] = Honma et al. 1983; cited from earlier work

In the case of lithocholic acid acetate, the body weight [1] is listed as “did not affect the body weight or plasma calcium”, the plasma calcium [1] is listed as “did not affect the body weight or plasma calcium” and the “differentiation of leukemic cells” value (leukemic cells) is listed as “induced the differentiation of leukemic cells”. For the same molecule, the “function and potency as VDR ligand” value (VDR [2]) was “activated VDR more potently than lithocholic acid; also recorded: more potency on VDR than lithocholic acid”, the body weight [3] was “did not decrease their body weight” and the “activity on FXR” value [4] was “weaker than that of chenodeoxycholic acid and comparable to that of lithocholic acid”. The “induction of differentiation marker (Nitro blue tetrazolium-reducing activity), HL60 cells” value ([5]; 10 μM) was “weakly” and the “induction of differentiation marker (Nitro blue tetrazolium-reducing activity), HL60 cells” value ([5]; 30 μM) was “effectively”.

In the case of `CCC(=O)O[C@@H]1CC[C@@]2(C)[C@H](CC[C@@H]3[C@@H]2CC[C@]2(C)[C@@H]([C@H](C)CCC(=O)O)CC[C@@H]32)C1` [lithocholic acid propionate], the “expression of the VDR target gene CYP24 in kidney” value (VDR target gene CYP24) is reported as “induced the expression of the VDR target gene in the organ”, the “kidney Cyp24a1 expression” value ([6]; oral (gavage), 0.7 mmol/kg and 1 mmol/kg, day 12) is reported as “induced the kidney Cyp24a1 expression as effectively as 1α(OH)D3” and the “kidney calbindin D9k expression” value ([6]; oral (gavage), day 12) is reported as “not induced”. For the same molecule, the “potency on FXR” value [7] was “extremely weak potency on FXR”, the “intestinal mucosa target gene expression” value ([8]; 0.7 mmol/kg) was “not effective in inducing intestinal mucosa target gene expression” and the “kidney Cyp24a1 expression” value ([8]; 0.7 mmol/kg) was “induced the expression of kidney Cyp24a1 as effectively as 1α(OH)D3”. For the same molecule, the “effects on GPBAR1” value [9] was “extremely weak effects”, the “selectivity as VDR ligand (VDR versus FXR and GPBAR1)” value (VDR [10]) was “more selective VDR ligand (activating agent) than lithocholic acid and lithocholic acid acetate” and the “induction of differentiation markers, U937 cells” value (U937 cells) was “induced the differentiation markers”. For the same molecule, the “induction of differentiation markers, HL-60 cells” value [5] was “induced the differentiation markers”, the “induction of differentiation marker (Nitro blue tetrazolium-reducing activity), HL60 cells” value ([5]; 10 μM) was “weakly” and the “induction of differentiation marker (Nitro blue tetrazolium-reducing activity), HL60 cells” value ([5]; 30 μM) was “effectively”. For the same molecule, the “body weight of mice” value [11] was “did not adversely affect the body weight or the blood calcium level”.

With `C=C1/C(=C\C=C2/CCC[C@]3(C)[C@@H]([C@H](C)CCCC(C)C)CC[C@@H]23)C[C@@H](O)C[C@@H]1O` [1α-hydroxyvitamin D3] the “intestinal mucosa Cyp24a1 expression” value ([6]; 1 day single oral dose (data not shown)) was “not observed”, the “intestinal mucosa Cyp24a1 expression” value ([6]; 10 day oral administration, 12.5 nmol/kg) was “not increased” and the “intestinal mucosa Cyp24a1 expression” value ([8]; 12.5 nmol/kg) was “induced the intestinal mucosa Cyp24a1 expression”. For the same molecule, the “kidney Cyp24a1 expression” value ([8]; 12.5 nmol/kg) was “effectively induced the expression”, the “kidney Trpv5 expression” value ([8]; 12.5 nmol/kg) was “effectively induced the expression” and the “kidney Trpv6 expression” value ([8]; 12.5 nmol/kg) was “effectively induced the expression”. For the same molecule, the “kidney calbindin D9k expression” value ([8]; 12.5 nmol/kg) was “effectively induced the expression”, the “survival time of the mice inoculated with leukemia cells” value (myeloid leukemia cells) was “more effective than 1,25(OH)2D3 in increasing the survival time” and the “conversion to 1,25-dihydroxyvitamin D3 after injection” value [12] was “rapidly converted to 1,25-dihydroxyvitamin D3”. For the same molecule, the “body weight of mice” value [11] was “decreased the body weight of mice”.
